Experimental data published in patent US4918073A, “Diarylalkyl-substituted alkylamines and medicaments containing them” (Hoechst Aktiengesellschaft, priority 1986, dated 1990).
Like-named read-outs stand apart in the source and are kept apart here.

Assays:
[1] = target: 3H-nitrendipine binding, membrane preparation from the cortex of the rat brain; assay: displacement of tritium-labeled nitrendipine from rat brain cortex membranes (calcium-antagonistic activity); conditions: 3H-nitrendipine 0.1 nM, TRIS buffer pH 7.4, 25° C., 60 minutes; read-out: IC50 (displacement of 50% of the radioactively labeled nitrendipine)
Protocol: This test was carried out in a membrane preparation obtained from the cortex of the rat brain and washed several times, the method described by R. J. Gould et al. (Proc. Natl. Acad. Sci. U.S.A. 79, 3656 [1982]) essentially being used. […] The membrane fractions were separated off by vacuum filtration over Whatman-GF/F glass fiber filters and the radioactivity was measured in a liquid scintillation counter. […] The IC50 value, i.e. the concentration of test substance which is capable of displacing 50% of the radioactively labeled nitrendipine, is determined as the characteristic parameter.

isolated guineapig heart = assay: coronary circulation on the isolated guineapig heart (Langendorff); conditions: Cavia porcellus, vs control hearts; for activation at 0.0001 mg: dose 0.1 μg via feed tube; for activation at 0.0005 mg: dose 0.5 μg via feed tube
Protocol: For this test, female heparinized (2.5 mg of heparin sodium intraperitoneally 1 hour before sacrifice) guineapigs (220-250 g) were sacrificed by a blow on the neck. Immediately after the thorax has been opened, cardiac arrest was induced by cooling the heart with icecold saline solution. The ascending aorta was catheterized and connected to a non-recirculating perfusion system (hydrostatic pressure 65 cm of H2 O) in accordance with the method of Langendorff. Exposure of the heart was folowed by a perfusion period of 30 minutes for adaptation of the heart to the isolated state. A modified Krebs-Henseleit bicarbonate solution (113.8 mM NaCl, 22.0 mM NaHCO3, 4.7 mM KCl, 1.2 mM KH2 PO4, 1.1 mM MgSO4 ×7 H2 O and 2.5 mM CaCl2 ×2 H2 O, equilibrated with 95% of O2 and 5% of CO2, pH 7.41, 38° C.) was used as the perfusate. Glucose (11 mM) and sodium pyruvate (2.0 mM) were added. The osmolality of the perfusate was kept constant by adjusting the amount of NaCl. The hearts were loaded with a resting voltage of 2 pond (p). The heart rate and contraction force were recorded isometrically and the equipment for this (Hellige GmbH, Freiburg, Germany) were calibrated to 2 p. The coronary flow was determined with the aid of a drop counter, 7 drops corresponding to 1 ml. The values stated are expressed as the percentage increase in coronary circulation after administration of the test substance in the stated dosage via a feed tube (0.1% strength solution in propanediol), based on control hearts without addition of the test substance. The following table contains some of the values measured:
(a) mean value of 28 measurements
(b) the values stated result from in each case two measurements.

[2] = values from in each case two measurements, read-out: Increase in coronary circulation

IC50 [1] [nM]	Compound	also measured
22	Fc1ccc(C(CCCN2CCN(CCOC3CCCCC3)CC2)c2ccc(F)cc2)cc1 [Example 16, 1-[4,4-bis(4-fluorophenyl)butyl]-4-[(2-cyclohexoxy)-ethyl]piperazine]	
12	Cc1ccc(OCCN2CCN(CCCC(c3ccc(F)cc3)c3ccc(F)cc3)CC2)cc1 [Example 17]	activation at 0.0001 mg (isolated guineapig heart; [2]): 14 to 17%; activation at 0.0005 mg (isolated guineapig heart; [2]): 33 to 38%
48	Fc1ccc(C(CCCN2CCN(CCOc3cccc4ccccc34)CC2)c2ccc(F)cc2)cc1 [Example 18, 1-[4,4-bis(4-fluorophenyl)butyl]-4-[2-(1-naphthyloxy)ethyl]piperazine]	
85	Fc1ccc(C(CCCN2CCN(CCCCOc3cccc4cnccc34)CC2)c2ccc(F)cc2)cc1 [Example 22]	
65	Fc1ccc(C(CCCN2CCN(CCOc3cccc4ncccc34)CC2)c2ccc(F)cc2)cc1 [Example 28]	
12	Fc1ccc(C(CCCN2CCC(CCOc3cccc4cnccc34)CC2)c2ccc(F)cc2)cc1 [Example 32]	
90	Fc1cccc(C(CCCN2CCN(CCOc3cccc4cnccc34)CC2)c2cccc(F)c2)c1 [Example 36]	
400	CN(CCCC(c1ccc(F)cc1)c1ccc(F)cc1)C1CCN(CCOc2cccc3cnccc23)CC1 [Example 37]	
8.5	O=[N+]([O-])c1ccc(OCCN2CCN(CCCC(c3ccc(F)cc3)c3ccc(F)cc3)CC2)cc1 [Example 41]	
	COc1ccc(OCCN2CCN(CCCC(c3ccc(F)cc3)c3ccc(F)cc3)CC2)cc1 [Example 42]	activation at 0.0005 mg (isolated guineapig heart; [2]): 20 to 29%
11	Fc1ccc(OCCN2CCN(CCCC(c3ccc(F)cc3)c3ccc(F)cc3)CC2)cc1 [Example 45]	activation at 0.0001 mg (isolated guineapig heart; [2]): 13 to 26%; activation at 0.0005 mg (isolated guineapig heart; [2]): 38 to 57%
	CC(C)(C)c1ccc(OCCN2CCN(CCCC(c3ccc(F)cc3)c3ccc(F)cc3)CC2)cc1 [Example 46]	activation at 0.0001 mg (isolated guineapig heart; [2]): 12 to 23%; activation at 0.0005 mg (isolated guineapig heart; [2]): 21 to 36%
4	Fc1ccc(C(CCCN2CCN(CCOc3ccc(C(F)(F)F)cc3)CC2)c2ccc(F)cc2)cc1 [Example 50]	activation at 0.0001 mg (isolated guineapig heart; mean value of 28 measurements, read-out: Increase in coronary circulation (mean value)): 38%
180	NC(=O)C1CN(CCOc2ccccc2)CCN1CCCC(c1ccc(F)cc1)c1ccc(F)cc1 (centres unmarked) [Example 56]	activation at 0.001 mg (isolated guineapig heart; dose 1.0 μg via feed tube, values from in each case two measurements, read-out: Increase in coronary circulation): 40 to 65%
60	O=C(O)C1CN(CCCC(c2ccc(F)cc2)c2ccc(F)cc2)CCN1CCOc1cccc2ccccc12 (centres unmarked) [Example 61]	
	Fc1ccc(C(CCCN2CCN(CCOc3c(Cl)cccc3Cl)CC2)c2ccc(F)cc2)cc1 [Example 62]	activation at 0.0001 mg (isolated guineapig heart; [2]): 9 to 13%
19	CC(=O)c1cccc(OCCN2CCN(CCCC(c3ccc(F)cc3)c3ccc(F)cc3)CC2)c1 [Example 64]	
12	CC(=O)c1ccccc1OCCN1CCN(CCCC(c2ccc(F)cc2)c2ccc(F)cc2)CC1 [Example 66]	
	Fc1ccc(C(CCCN2CCN(CCOc3ccccc3C(F)(F)F)CC2)c2ccc(F)cc2)cc1 [Example 67]	activation at 0.0001 mg (isolated guineapig heart; [2]): 5 to 21%; activation at 0.0005 mg (isolated guineapig heart; [2]): 23 to 35%
0.9	Fc1ccc(C(CCCN2CCN(CCOc3cccc(C(F)(F)F)c3)CC2)c2ccc(F)cc2)cc1 [Example 68]	activation at 0.0001 mg (isolated guineapig heart; [2]): 20 to 29%
2	Fc1ccc(C(CCCN2CCN(CCOc3cc(C(F)(F)F)cc(C(F)(F)F)c3)CC2)c2ccc(F)cc2)cc1 [Example 69]	
	CCOC(=O)c1ccc(OCCN2CCN(CCCC(c3ccc(F)cc3)c3ccc(F)cc3)CC2)cc1 [Example 70]	activation at 0.0005 mg (isolated guineapig heart; [2]): 36 to 52%
4.2	Fc1ccc(C(CCCN2CCC(CCOc3ccc(C(F)(F)F)cc3)CC2)c2ccc(F)cc2)cc1 [Example 71]	
1.2	Fc1ccc(C(CCCN2CCC(CCOc3ccccc3C(F)(F)F)CC2)c2ccc(F)cc2)cc1 [Example 73]	
1	Fc1ccc(C(CCCN2CCC(CCOc3cccc(C(F)(F)F)c3)CC2)c2ccc(F)cc2)cc1 [Example 74]	
9	CSc1ccc(OCCN2CCN(CCCC(c3ccc(F)cc3)c3ccc(F)cc3)CC2)cc1 [Example 75]	
3.6	Fc1ccc(C(CCCN2CCN(CCOc3ccc(Br)cc3)CC2)c2ccc(F)cc2)cc1 [Example 81]	
70	CN(C)S(=O)(=O)c1ccc(OCCN2CCN(CCCC(c3ccc(F)cc3)c3ccc(F)cc3)CC2)cc1 [Example 83]	
430	Cc1cccc(C)c1NC(=O)CN1CCN(CCCC(c2ccc(F)cc2)c2ccc(F)cc2)CC1 [Lidoflazine, reference compound]	
